Legend:
Relaxivity = assay type: physicochemical
[1] = tested on: HT29 and WiDr colon cancer; experiment: Signal intensity change in tissues of tumor-bearing (HT29 and WiDr colon cancer) nude mice, example 1c, 0.5 mmol/kg; assay type: in vivo, nude mice (Balb/c nu/nu); conditions: 0.5 mmol/kg i.v.
Protocol: d) On a Bruker Biospec nuclear spin tomograph (2.35 Tesla), the signal intensity change in various tissues of tumor-bearing (HT29 and WiDr colon cancer) nude mice (Balb/c nu/nu) was studied after i.v. administration of 0.5 mmol/kg of the compound of example 1c (10 mmol/l, pH 7.2; 37° C. in bidistilled water). The measurement takes place with a multi slice single echo sequence (MSSE). Imaging parameters: TR: 400 ms, TE: 30 ms, layer thickness: 4 mm, number of averages: 4/slice, matrix 256^2. After a preliminary image, 0.5 mmol/kg of the substance was administered and the signal intensity change studied up to 180 minutes p.i.

[2] = Tissue concentrations by ICP-AES after 0.1 mmol/kg i.v. in nude mice with subcutaneously implanted colon cancers (HT29, WiDr); assay type: in vivo, nude mice (Balb/c nu/nu)
Protocol: a) 9 nude mice (Balb/c nu/nu) with subcutaneously implanted colon cancers (HT29, WiDr) were each administered by i.v. 0.1 mmol/kg of the mesoporphyrin derivative of example 1b (10 mmol/l dissolved in bidistilled water, pH 7.2, 37° C.). After 0.5, 3 and 24 hours the animals were killed and dissected. The tissue concentrations were determined after corresponding working-up (HNO3 conc.) by ICP-AES and calculated for % of the administered dose per gram of tissue net weight.
e) 9 nude mice (Balb/c nu/nu) with subcutaneously implanted colon cancers (HT29 and WiDr) were each administered by i.v. 0.1 mmol/kg of the deuteroporphyrin derivative of the compound according to example 1c (10 mmol/l dissolved in bidistilled water, pH 7.2, 37° C.). After 0.5, 3 and 24 hours, the animals were killed and dissected. The tissue concentrations were determined after corresponding working-up (HNO3 conc.) by ICP-AES and calculated for % of the administered dose per gram of tissue net weight. Moreover, tissue relaxation times T1 and T2 were determined (Bruker minispec pc 120).
9 nude mice (Balb/c nu/nu) with subcutaneously implanted colon cancers (HT29, WiDr) were each administered by i.v. 0.1 mmol/kg of the mesoporphyrin derivative of example 8e (10 mmol/l dissolved in bidistilled water, pH 7.2, 37° C.). After 0.5, 3 and 24 hours, the animals were killed and dissected. The tissue concentrations were determined after corresponding working-up (HNO3 conc.) by ICP-AES and calculated for % of the administered dose per gram of tissue net weight.
9 nude mice (Balb/c nu/nu) with subcutaneously implanted colon cancers (HT29, WiDr) were each administered by i.v. 0.1. mmol/kg of the mesoporphyrin derivative of example 16f (10 mmol/l dissolved in bidistilled water, pH 7.2, 37° C.). After 0.5 and 3 hours the animals were killed and dissected. The tissue concentrations were determined after corresponding working-up (HNO3 conc.) by ICP-AES and calculated for % of the administered dose per gram of tissue net weight.
9 nude mice (Balb/c nu/nu) with subcutaneously implanted colon cancers (HT29, WiDr) were each administered by i.v. 0.1 mmol/kg of the mesoporphyrin derivative of example 18d (10 mmol/l dissolved in bidistilled water, pH 7.2, 37° C.). After 0.5 and 3 hours, the animals were killed and dissected. The tissue concentrations were determined after corresponding working-up (HNO3 conc.) by ICP-AES and calculated for % of the administered dose per gram of tissue net weight.
9 nude mice (Balb/c nu/nu) with subcutaneously implanted colon cancers (HT29, WiDr) were each administered by i.v. 0.1 mmol/kg of the mesoporphyrin derivative of example 19e (10 mmol/l dissolved in bidistilled water, pH 7.2, 37° C.). After 0.5, 3 and 24 hours, the animals were killed and dissected. The tissue concentrations were determined after corresponding working-up (HNO3 conc.) by ICP-AES and calculated for % of the administered dose per gram of tissue net weight.

HT29 colon cancer = experiment: Signal intensity change in tissues of tumor-bearing (HT29 colon cancer) nude mice, Bruker Biospec 2.35 Tesla, MSSE; assay type: in vivo, nude mice (Balb/c nu/nu); conditions: 0.05 mmol/kg i.v.; for enhancement, HT29 / enhancement, Kidneys / enhancement, Liver / enhancement, Muscle: time 0 = 100
Protocol: On a Bruker Biospec nuclear spin tomograph (2.35 Tesla), the al intensity change in various tissues of tumor-bearing (HT29 colon cancer) nude mice (Balb/c nu/nu) was studied after i.v administration of 0.05 mmol/kg of the compound according to example 1c (10 mmol/l, pH 7.2; 37° C. in bidistilled water). The measurement takes place with a multi slice single echo sequence (MSSE). Imaging parameters: TR: 400 ms, TE: 30 ms, layer thickness: 4 mm, number of averages: 4/slice, matrix 256^2. […]

VX-2 carcinoma = experiment: Signal intensity in tissues of tumor-bearing rabbit (VX-2 carcinoma), Siemens Magneton 1.5 Tesla; assay type: in vivo
Excerpt: On a Siemens Magneton^(R) (1.5 Tesla; 64 MHz), the signal intensity in various tissues of a tumor-bearing rabbit [hare rabbit, Wulf, female, approximately 4 kg body weight (n=3), tumor of VX-2 carcinoma implanted intramuscularly about 3 weeks before the beginning of the test) was studied after the i.v. administration of […] body weight (corresponding to 0.05 mmol/kg of gadolinium) of the compound according to the invention produced according to Example 1c. The measurement took place with the following imaging parameters: T1 -weighted spin echo sequence: TR : 350 ms, TE : 15 ms, layer orientation: coronary, layer thickness 3 mm, number of averages: 4 per layer, field of view: 150 mm, matrix 256^2, 4-6 layers 1 echo per imaging sequence.
The relative signal intensities in various tissues are represented in FIG. 4. The output signal intensity (=SIprecontrast) in the various tissues was set equal to 1 in each case.

[3] = 0.0025 mmol/kg i.v. (corresponding to 0.05 mmol/kg of gadolinium)

For “N,N'-Bis[9-carboxylato-2,5,8-tris(carboxylatomethyl)-2,5,8-triazanonyl-carbamoyl]-mesoporphyrin-IX-13,17-diamide, digadolinium complex, disodium salt [Example 1c]”, the relaxivity (Relaxivity) was 17.86 1 mmol^-1 s^-1, the “signal intensity change, liver tissue and both tumors” value ([1]; 5 minutes p.i.) was “marked signal intensity increase” and the “signal intensity change, muscle” value ([1]; reference tissue) was “smaller signal increase”. For the same substance, the “tissue concentration, kidneys” value ([2]; 0.5 hour p.i.) was 4.06 ± 1.01 % of the administered dose per gram of tissue net weight, the “tissue concentration, kidneys” value ([2]; 3 hours p.i.) was 4.47 ± 1.63 % of the administered dose per gram of tissue net weight and the “tissue concentration, kidneys” value ([2]; 24 hours p.i.) was 4.20 ± 0.27 % of the administered dose per gram of tissue net weight. The “signal intensity change, tumor and muscle” value (HT29 colon cancer) was “only a slight change”, the “enhancement, HT29” value (HT29 colon cancer; 5 min) was 116 ± 19 and the “enhancement, Kidneys” value (HT29 colon cancer; 5 min) was 185 ± 34. The “enhancement, Liver” value (HT29 colon cancer; 5 min) was 122 ± 31, the “enhancement, Muscle” value (HT29 colon cancer; 5 min) was 119 ± 8 and the “signal intensity change, liver tissue” value (HT29 colon cancer; 5 minutes p.i.) was “marked signal intensity increase”. The “enhancement, HT29” value (HT29 colon cancer; 60 min) was 128 ± 21, the “enhancement, Kidneys” value (HT29 colon cancer; 60 min) was 240 ± 26 and the “enhancement, Liver” value (HT29 colon cancer; 60 min) was 164 ± 22. For the same substance, the “enhancement, Muscle” value (HT29 colon cancer; 60 min) was 129 ± 7, the “enhancement, HT29” value (HT29 colon cancer; 90 min) was 148 ± 22 and the “enhancement, Kidneys” value (HT29 colon cancer; 90 min) was 248 ± 18. The “enhancement, Liver” value (HT29 colon cancer; 90 min) was 202 ± 37, the “enhancement, Muscle” value (HT29 colon cancer; 90 min) was 143 ± 21 and the “enhancement, HT29” value (HT29 colon cancer; 120 min) was 155 ± 30. For the same substance, the “enhancement, Kidneys” value (HT29 colon cancer; 120 min) was 246 ± 6, the “enhancement, Liver” value (HT29 colon cancer; 120 min) was 194 ± 33 and the “enhancement, Muscle” value (HT29 colon cancer; 120 min) was 147 ± 17. For the same substance, the “enhancement, HT29” value (HT29 colon cancer; 150 min) was 167 ± 29, the “enhancement, Kidneys” value (HT29 colon cancer; 150 min) was 225 ± 12 and the “enhancement, Liver” value (HT29 colon cancer; 150 min) was 197 ± 17. The “enhancement, Muscle” value (HT29 colon cancer; 150 min) was 146 ± 8, the “enhancement, HT29” value (HT29 colon cancer; 180 min) was 161 ± 22 and the “enhancement, Kidneys” value (HT29 colon cancer; 180 min) was 212 ± 16. The “enhancement, Liver” value (HT29 colon cancer; 180 min) was 212 ± 9, the “enhancement, Muscle” value (HT29 colon cancer; 180 min) was 157 ± 8 and the “enhancement, implanted tumor” value (VX-2 carcinoma; [3]) was “good long acting enhancement”. For the same substance, the “enhancement, majority of the lymph nodes on the tumor-bearing side” value (VX-2 carcinoma; [3]) was “good long acting enhancement” and the “diagnosis of metastasis of the lymph nodes” value (VX-2 carcinoma; confirmed by histological study) was “a metastasis attack of the lymph nodes could therefore be diagnosed”.

Reference: patent publication US5849259A, “3-,8-substituted deuteroporphyrin derivatives, pharmaceutical agents containing the latter and process for their production” (priority 1992, dated 1998)
